Assay results as given in patent publication US20070249607A1, “NK-1 AND SEROTONIN TRANSPORTER INHIBITORS” (Bristol-Myers Squibb Company, priority 2006, published 2007).
Like-named read-outs stand apart in the source and are kept apart here.

Experiments:
[1] = biological target: T1, neurokinin-1 (NK-1) receptor (Homo sapiens, UniProt P25103); assay: NK-1 Binding assay ([125I] Substance P competition, U373 cell membranes); conditions: Table 2; U373 membranes, [125I] Substance P displacement; read-out: NK-1 IC50
T1 construct: a human glioblastoma-astrocytoma cell line that endogenously expresses the neurokinin-1 (NK-1) receptor; endogenous in cells; host or cells: U373 human glioblastoma-astrocytoma cells (membranes)
Procedure: NK-1 Binding assay. U373 cells, a human glioblastoma-astrocytoma cell line that endogenously expresses the neurokinin-1 (NK-1) receptor, were grown in a monolayer culture at 37° C. in 5% CO2 and fed with Minimum Essential Medium (MEM) supplemented with 10% fetal bovine serum. Membranes were prepared as follows: Cells were washed twice with ice-cold phosphate-buffered saline (pH 7.4) and then incubated for 5-10 minutes with ice-cold 10 mM Tris buffer (pH 7.4) containing 5 mM EDTA. Cells were removed from plates, homogenized, and centrifuged at 32,000×g for 20 minutes. The resulting supernatant was discarded, and the pellet resuspended by homogenization in 50 mM Tris buffer (pH 7.4) containing 1 mM EDTA and centrifuged at 32,000×g for 20 minutes. The resulting supernatant was discarded, and the pellet resuspended by homogenization in NK-1 binding assay buffer (50 mM Tris-HCL (pH 7.4), 3 mM MnCl2, 200 μg/ml BSA, 5 μg/ml chymostatin, 40 μg/ml bacitracin and 4 μg/ml leupeptin).
On the day of an experiment the membrane preparation was thawed, homogenized and diluted with NK-1 binding assay buffer to the appropriate concentration. […] Substance P, at a concentration of […], and concentrations of drugs ranging from 10000 to 0.01 nM. Samples were incubated for 30 min at 20° C. then filtered through GF/B glass fiber filters (pretreated with 1% polyethyleneimine and 0.3% Triton X-100) using a Brandel cell harvester. The filters were then washed with 10 ml ice cold 50 mM Tris-HCL (pH 7.4) containing 3 mM MgCl2. […] The amount of radioligand bound in the presence and absence of competitor was analyzed by plotting (-)log drug concentration versus the amount of radioligand specifically bound. The midpoint of the displacement curve (IC50, nM), signifies the potency.

[2] = biological target: T2, human serotonin transporters (Homo sapiens, UniProt P31645); assay: Serotonin transporter binding assay ([3H]-citalopram competition, HEK-hSERT cell membranes)
T2 construct: expressed in transfected cells
Procedure: Serotonin transporter binding assay. HEK-293 cells that stably express human serotonin transporters (HEK-hSERT cells) were grown at 37° C. in 5% CO2 as a monolayer in medium consisting of EMEM supplemented with 10% fetal bovine serum and G418 sulfate (500 μg/ml). To prepare membranes for radioligand binding experiments, cells were rinsed twice with phosphate-buffered saline (138 mM NaCl, 4.1 mM KCl, 5.1 mM Na2PO4, 1.5 mM KH2PO4, 11.1 mM glucose, pH 7.4). Cells were transferred from plates to polypropylene tubes (16×100 mm), centrifuged at 1,200×g for 5 min and were frozen at −80° C. until assay. Following centrifugation, pellets were resuspended by homogenization in buffer consisting of 50 mM Tris (pH 7.7 at 25° C.), 120 mM NaCl and 5 mM KCl and then centrifuged at 32,000×g for 10 min. Following centrifugation, supernatants were discarded and pellets were resuspended in buffer consisting of 50 mM Tris (pH 7.4 at 25° C.), 150 mM NaCl and 5 mM KCl. Membrane homogenates (200 μl/plate) were incubated with 1 nM [^3H]-citalopram (specific activity=85 Ci/mmol) and increasing concentrations of test compounds for 1 hr at 25° C. in a total volume of 250 μl. The assay buffer consisted of 50 mM Tris (pH 7.4 at 25° C.), 120 mM NaCl and 5 mM KCl (pH 7.4 with conc. HCl). Plates were incubated for 1 hr at 25° C., then filtered through 0.5% PEI treated Whatman GF/B filters using a Brandel cell harvester. Filters were washed three times with 3 ml of ice-cold tris wash buffer. Non-specific binding was defined with 10 μM fluoxetine. Amount of radioligand bound in the presence and absence of competitor was analyzed by plotting (-)log drug concentration versus the amount of radioligand specifically bound. The midpoint of the displacement curve (IC50, nM), signifies the potency. Ki values can be calculated using the method of Cheng and Prusoff (Cheng and Prusoff, BiochemicalPharmacology, Vol 22, pp. 3099-3108, Pergamon Press (1973)).

[3] = Table 2, HEK-hSERT membranes, [3H]-citalopram displacement, read-out: SERT IC50

T2 sequence (P31645 whole entry): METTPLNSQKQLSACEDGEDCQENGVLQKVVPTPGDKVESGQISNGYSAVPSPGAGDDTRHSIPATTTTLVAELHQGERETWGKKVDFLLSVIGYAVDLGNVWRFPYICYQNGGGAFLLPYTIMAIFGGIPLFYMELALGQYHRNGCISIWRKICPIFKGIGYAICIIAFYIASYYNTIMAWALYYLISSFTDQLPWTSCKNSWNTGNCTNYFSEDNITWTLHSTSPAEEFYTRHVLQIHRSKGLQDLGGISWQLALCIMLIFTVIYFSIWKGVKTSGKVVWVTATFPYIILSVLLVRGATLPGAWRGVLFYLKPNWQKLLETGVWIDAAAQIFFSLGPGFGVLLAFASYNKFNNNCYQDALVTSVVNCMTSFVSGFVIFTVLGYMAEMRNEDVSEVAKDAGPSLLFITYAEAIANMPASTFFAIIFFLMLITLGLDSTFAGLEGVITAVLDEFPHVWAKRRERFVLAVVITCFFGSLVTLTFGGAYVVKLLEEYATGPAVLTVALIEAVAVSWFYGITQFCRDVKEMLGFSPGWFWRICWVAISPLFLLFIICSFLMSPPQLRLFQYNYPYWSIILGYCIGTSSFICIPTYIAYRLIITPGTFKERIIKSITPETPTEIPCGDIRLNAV
T1 sequence (P25103 whole entry): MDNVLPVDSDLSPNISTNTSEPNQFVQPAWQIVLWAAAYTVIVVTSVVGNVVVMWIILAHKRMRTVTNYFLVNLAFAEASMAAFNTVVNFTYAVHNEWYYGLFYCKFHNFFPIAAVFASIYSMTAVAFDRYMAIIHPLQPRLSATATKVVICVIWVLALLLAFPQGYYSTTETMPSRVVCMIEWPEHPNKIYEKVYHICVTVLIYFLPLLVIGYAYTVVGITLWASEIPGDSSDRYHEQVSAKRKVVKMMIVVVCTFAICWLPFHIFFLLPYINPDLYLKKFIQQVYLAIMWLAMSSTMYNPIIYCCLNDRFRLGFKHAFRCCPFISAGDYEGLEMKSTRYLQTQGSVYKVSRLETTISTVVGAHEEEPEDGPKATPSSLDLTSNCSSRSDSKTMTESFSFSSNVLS

Compound | IC50 [1] [nM] | IC50 [2, 3] [nM] | IC50 [2] [nM]
Cn1cc(-c2cc(COCC3(c4ccccc4)CCNCC3)cc(C(F)(F)F)c2)cn1 | 0.01 to 100 | 0.01 to 100 | 
Fc1cnc(Cl)c(-c2cc(COCC3(c4ccccc4)CCNCC3)cc(C(F)(F)F)c2)c1 | 100 to 300 | 0.01 to 100 | 
FC(F)(F)c1cc(COCC2(c3ccccc3)CCNCC2)cc(-c2c(C(F)(F)F)cccc2C(F)(F)F)c1 | 0.01 to 100 | 0.01 to 100 | 
FC(F)(F)Oc1cccc(-c2cc(COCC3(c4ccccc4)CCNCC3)cc(C(F)(F)F)c2)c1 | > 300 | 0.01 to 100 | 
CC(C)Cc1ccc(-c2cc(COCC3(c4ccccc4)CCNCC3)cc(C(F)(F)F)c2)cc1 | > 300 | 100 to 300 | 
Fc1cccc(-c2cc(COCC3(c4ccccc4)CCNCC3)cc(C(F)(F)F)c2)c1F | 0.01 to 100 | 0.01 to 100 | 
Cc1cc(C#N)ccc1-c1cc(COCC2(c3ccccc3)CCNCC2)cc(C(F)(F)F)c1 | 0.01 to 100 | 0.01 to 100 | 
N#Cc1ccc(-c2cc(COCC3(c4ccccc4)CCNCC3)cc(C(F)(F)F)c2)nc1 | 0.01 to 100 | 0.01 to 100 | 
CN1CCC(COCc2cc(-c3ccc(Cl)cc3)cc(C(F)(F)F)c2)(c2ccccc2)CC1 | 0.01 to 100 |  | 0.01 to 100
COc1ccc(-c2cc(COCC3(c4ccccc4)CCN(C)CC3)cc(C(F)(F)F)c2)cc1 | 0.01 to 100 |  | 0.01 to 100
CN1CCC(COCc2cc(-c3ccc(F)cc3)cc(C(F)(F)F)c2)(c2ccccc2)CC1 | 0.01 to 100 |  | 0.01 to 100
CN1CCC(COCc2cc(-c3ccc(F)c(Cl)c3)cc(C(F)(F)F)c2)(c2ccccc2)CC1 | 0.01 to 100 |  | 0.01 to 100
N#Cc1ccc(-c2cc(Cl)cc(COCC3(c4ccccc4)CCNCC3)c2)cc1 | 0.01 to 100 | 0.01 to 100 | 
N#Cc1ccc(-c2cc(C#N)cc(COCC3(c4ccccc4)CCNCC3)c2)cc1 | 0.01 to 100 | 0.01 to 100 | 
CN1CCC(COCc2cc(-c3cccc(F)c3)cc(C(F)(F)F)c2)(c2ccccc2)CC1 | 0.01 to 100 |  | 0.01 to 100
CN1CCC(COCc2cc(-c3ccc(F)cc3F)cc(C(F)(F)F)c2)(c2ccccc2)CC1 | 0.01 to 100 |  | 0.01 to 100
COc1ccc(-c2cc(COCC3(c4ccccc4)CCN(C)CC3)cc(C(F)(F)F)c2)cc1F | 0.01 to 100 |  | 0.01 to 100
C[C@H](OCC1(c2ccccc2)CCNCC1)c1cc(-c2ccc(C#N)cc2)cc(C(F)(F)F)c1 | 0.01 to 100 | 100 to 300 | 
N#Cc1ccc(-c2cc(F)cc(COCC3(c4ccccc4)CCNCC3)c2)cc1 | 0.01 to 100 | 0.01 to 100 | 
Fc1ccc(-c2cc(F)cc(COCC3(c4ccccc4)CCNCC3)c2)cc1 | > 300 | 0.01 to 100 | 
CN1CCC(COCc2cc(F)cc(-c3ccc(C#N)cc3)c2)(c2ccccc2)CC1 | 0.01 to 100 |  | 0.01 to 100
CN1CCC(COCc2cc(F)cc(-c3ccc(F)cc3)c2)(c2ccccc2)CC1 | 100 to 300 |  | 0.01 to 100
Fc1ccc(-c2cc(COCC3(c4ccc(F)cc4)CCNCC3)cc(C(F)(F)F)c2)cc1 | 0.01 to 100 | 0.01 to 100 | 
CN1CCC(COCc2cc(-c3ccc(F)cc3)cc(C(F)(F)F)c2)(c2ccc(F)cc2)CC1 | 0.01 to 100 |  | 0.01 to 100
CC(OCC1(c2ccccc2)CCNCC1)c1cc(F)cc(-c2ccc(C#N)cc2)c1 (stereo not drawn) | 0.01 to 100 | 0.01 to 100 | 
CCN1CCC(COCc2cc(-c3ccc(C#N)cc3)cc(C(F)(F)F)c2)(c2ccccc2)CC1 | 0.01 to 100 | > 300 | 
N#Cc1ccc(-c2cc(COCC3(c4ccccc4)CCN(Cc4ccccc4)CC3)cc(C(F)(F)F)c2)cc1 | 0.01 to 100 | > 300 | 

Compound | IC50 [1] [nM] | IC50 [2, 3] [nM] | IC50 [2] [nM]
CC(OCC1(c2ccccc2)CCNCC1)c1cc(Cl)cc(-c2ccc(C#N)cc2)c1 (stereo not drawn) | 0.01 to 100 | 0.01 to 100 | 
Cc1cc(COCC2(c3ccccc3)CCNCC2)cc(-c2ccc(C#N)cc2)c1 | 0.01 to 100 | 0.01 to 100 | 
CN(C)C(=O)c1cc(COCC2(c3ccccc3)CCNCC2)cc(-c2ccc(C#N)cc2)c1 | > 300 | 0.01 to 100 | 
N#Cc1ccc(-c2cc(COCC3(c4ccccc4)CCNCC3)cc(C(=O)N3CCCCC3)c2)cc1 | > 300 | 0.01 to 100 | 
N#Cc1ccc(-c2cc(COCC3(c4ccccc4)CCNCC3)cc(C(=O)N3CCOCC3)c2)cc1 | > 300 | 0.01 to 100 | 
Oc1cc(COCC2(c3ccccc3)CCNCC2)cc(-c2ccc(F)cc2)c1 | > 300 | 0.01 to 100 | 
N#Cc1cc(COCC2(c3ccccc3)CCNCC2)cc(-c2ccc(F)cc2)c1 | 0.01 to 100 | 0.01 to 100 | 
NC(=O)c1cc(COCC2(c3ccccc3)CCNCC2)cc(-c2ccc(F)cc2)c1 | > 300 | 0.01 to 100 | 
COc1cc(COCC2(c3ccccc3)CCNCC2)cc(-c2ccc(F)cc2)c1 | 0.01 to 100 | 0.01 to 100 | 
N#Cc1ccc(-c2cc(COCC3(c4ccccc4)CCN(C4CC4)CC3)cc(C(F)(F)F)c2)cc1 | 0.01 to 100 | > 300 | 
COc1c(C)cc(-c2ccc(C#N)cc2)cc1COCC1(c2ccccc2)CCNCC1 | 0.01 to 100 | 0.01 to 100 | 
COc1ccc(-c2cc(COCC3(c4ccccc4)CCNCC3)cc(C(F)(F)F)c2)nn1 | 0.01 to 100 | 0.01 to 100 | 
Cc1cc(-c2cc(COCC3(c4ccccc4)CCNCC3)cc(C(F)(F)F)c2)ccc1C#N | 0.01 to 100 | 0.01 to 100 | 
N#Cc1ccc(-c2cc(COCC3(c4ccccc4)CCNCC3)cc(C(F)(F)F)c2)cc1Cl | 0.01 to 100 | 0.01 to 100 | 
N#Cc1c(F)c(F)c(-c2cc(COCC3(c4ccccc4)CCNCC3)cc(C(F)(F)F)c2)c(F)c1F | 0.01 to 100 | 0.01 to 100 | 
N#Cc1c(F)cc(-c2cc(COCC3(c4ccccc4)CCNCC3)cc(C(F)(F)F)c2)cc1F | 0.01 to 100 | 0.01 to 100 | 
FC(F)(F)c1cc(COCC2(c3ccccc3)CCNCC2)cc(-c2cnc(Cl)nc2)c1 | 0.01 to 100 | 0.01 to 100 | 
CN1CCC(COCc2cc(-c3cc(F)c(C#N)c(F)c3)cc(C(F)(F)F)c2)(c2ccccc2)CC1 | 0.01 to 100 |  | 0.01 to 100
CN1CCC(COCc2cc(-c3c(F)c(F)c(C#N)c(F)c3F)cc(C(F)(F)F)c2)(c2ccccc2)CC1 | 0.01 to 100 |  | 0.01 to 100
CN1CCC(COCc2cc(-c3ccc(C#N)c(Cl)c3)cc(C(F)(F)F)c2)(c2ccccc2)CC1 | 0.01 to 100 |  | 0.01 to 100
Cc1cc(-c2cc(COCC3(c4ccccc4)CCN(C)CC3)cc(C(F)(F)F)c2)ccc1C#N | 0.01 to 100 |  | 0.01 to 100
C[C@@H](OCC1(c2ccccc2)CCN(C)CC1)c1cc(-c2ccc(C#N)cc2)cc(C(F)(F)F)c1 | 0.01 to 100 |  | 0.01 to 100
CN1CCC(COCc2cc(-c3ccc(C#N)cc3)cc(C(F)(F)F)c2)(c2ccccc2F)CC1 | 0.01 to 100 |  | 0.01 to 100
COc1cc(F)c(-c2cc(COCC3(c4ccccc4)CCNCC3)cc(C(F)(F)F)c2)cc1F | 0.01 to 100 | 0.01 to 100 | 
COc1cc(-c2cc(COCC3(c4ccccc4)CCNCC3)cc(C(F)(F)F)c2)ccc1C#N | 0.01 to 100 | 0.01 to 100 | 
N#Cc1cc(F)c(-c2cc(COCC3(c4ccccc4)CCNCC3)cc(C(F)(F)F)c2)cc1F | 0.01 to 100 | 0.01 to 100 | 
COc1c(F)cc(-c2cc(COCC3(c4ccccc4)CCNCC3)cc(C(F)(F)F)c2)cc1F | 0.01 to 100 | 0.01 to 100 | 
